Assay [1] concerns the target T1, catalytic domain of human Bub1 (amino acids 704-1085) (Homo sapiens, UniProt O43683).
T1 construct: catalytic domain of human Bub1 (amino acids 704-1085); His6 (N); made in house; host or cells: Hi5 insect cells
Description: Bub1 kinase assay (TR-FRET). Type of assay: biochemical. The conditions noted are these: 10 μM ATP, 60 min reaction, pH 7.5; read-out: Biological Assay 1: Bub1 kinase assay median IC50. The method, then: To this end, 100-fold concentrated compound solutions (in DMSO) were previously prepared by serial dilution (1:3.4) of 2 mM stocks in a clear low volume 384-well source microtiter plate (Greiner Bio-One, Frickenhausen, Germany), from which 50 nL of compounds were transferred into a black low volume test microtiter plate from the same supplier. […] The resulting mixture (5 μL final volume) was incubated at 22° during 60 min., and the reaction was stopped by the addition of 5 μL of an aqueous EDTA-solution (50 mM EDTA, in 100 mM HEPES pH 7.5 and 0.2% (w/v) bovine serum albumin) which also contained the TR-FRET detection reagents (0.2 μM streptavidin-XL665 [Cisbio Bioassays, Codolet, France] and 1 nM anti-phosho-Serine antibody [Merck Millipore, cat. #35-001] and 0.4 nM LANCE EU-W1024 labeled anti-mouse IgG antibody [Perkin-Elmer, product no. AD0077, alternatively a Terbium-cryptate-labeled anti-mouse IgG antibody from Cisbio Bioassays can be used]). The stopped reaction mixture was further incubated 1 h at 22° C. in order to allow the formation of complexes between peptides and detection reagents. Subsequently, the amount of product was evaluated by measurement of the resonance energy transfer from the Eu-chelate-antibody complex recognizing the Phosphoserine residue to the streptavidin-XL665 bound to the biotin moiety of the peptide. […] IC50 values were calculated by fitting the normalized inhibition data to a 4-parameter logistic equation (Minimum, Maximum, IC50, Hill; Y=Max+(Min−Max)/(1+(X/IC50)Hill)).

Assay [2] deals with Bub1 kinase (pre-induced phospho-histone 2A). In words: H2A Abrogation-Assay (cell-based mechanistic assay, pre-treatment with Nocodazole). The conditions noted are these: read-out: Biological Assay 4.2: H2A Abrogation IC50. The method, then:
Biological Assay 4.2: Abrogation-Assay
Cell-Based Mechanistic Assay: Changes of Phosphorylation Status of Pre-Induced Phospho-Histone 2A by Inhibition of Kinase Activity of Bub1
This assay measures the inhibition of histone 2A phosphorylation, which was induced by pre-treatment of the cells with Nocodazole, by a Bub1 kinase inhibitor. 25000 cells (cells were ordered from ATCC) were seeded in 96 well plate for 5 h at 37° C. Cells were treated with Nocodazole (1 μg/ml). After 16h varying concentrations (between 3 nM and 10 μM) of test compounds were added and the cells were incubated for another 1h. Cells were fixed (20 min, Fixing solution R&D), washed three times with PBS and blocked with Odyssey blocking buffer before incubating with the primary antibody against phosphorylated H2A (5 μg/ml ABIN482721) overnight at 2-8° C. After washing, secondary IRDye-labeled antibody mix with cell stains was added for 1h and washed again with PBS. Plates were scanned with LiCor Odyssey Infrared Imager CLx at 800 nm for P-H2A and at 700 nm for cell stains Draq5/Sapphire. The quotient of 800 nm and 700 nm for Nocodazole only treated cells was set as 100% and the quotient of 800 nm and 700 nm of untreated cells was set as 0%. […] The IC50 values were determined by means of a 4 parameter fit.
(§1) Histone H2A is an immediate intracellular substrate of Bub1 kinase. Determination of the phosphorylation status of Histone H2A provides a direct measure of the intracellular activity of Bub1 kinase.

The subject of assay [3] is Bub1 kinase (histone 2A phosphorylation). Description: H2A Formation-Assay (cell-based mechanistic assay, co-treatment with Nocodazole). The conditions noted are these: 16 h, Nocodazole 1 μg/ml together with test compound for 16 h; read-out: Biological Assay 4.1: H2A Formation IC50. On the procedure:
Biological Assay 4.1: Formation-Assay
Cell-Based Mechanistic Assay: Changes of Phosphorylation Status of Histone 2A by Inhibition of Kinase Activity of Bub1
This assay determines the suppression of histone 2A phosphorylation by a Bub1 kinase inhibitor during co-treatment with Nocodazole. 25000 cells (cells were ordered from ATCC) were seeded in 96 well plate for 5 h at 37° C. Cells were treated with Nocodazole (1 μg/ml) and varying concentrations (between 3 nM and 10 μM) of test compounds for 16h. Cells were fixed (20 min, Fixing solution R&D), washed three times with PBS and blocked with Odyssey blocking buffer before incubating with the primary antibody against phosphorylated H2A (5 μg/ml ABIN482721) overnight at […]. After washing, secondary IRDye-labeled antibody mix with cell stains was added for 1h and washed again with PBS. Plates were scanned with LiCor Odyssey Infrared Imager CLx at 800 nm for P-H2A and at 700 nm for cell stains Draq5/Sapphire. The quotient of 800 nm and 700 nm for Nocodazole only treated cells was set as 100% and the quotient of 800 nm and 700 nm of untreated cells was set as 0%. […] The IC50 values were determined by means of a 4 parameter fit.
as §1

In assay [4] the test system is HeLa human cervical tumor cells. In words: Proliferation Assay (HeLa+Paclitaxel). The class given is cell-based. Particulars: 3 nM paclitaxel, test substance 92 hours; read-out: Biological Assay 3: Proliferation Assay (HeLa + Paclitaxel) IC50. The method, then:
Proliferation Assay (HeLa+Paclitaxel):
(§2) Cultivated HeLa human cervical tumor cells (DSMZ ACC-57) were plated at a density of 3000 cells/well in a 96-well multititer plate in 200 μL of growth medium supplemented 10% fetal calf serum. After 24 hours, the cells of one plate (zero-point plate) were stained with crystal violet (see below). The medium of the other plates was supplemented with 3 nM of paclitaxel (Sigma-Aldrich) and the cells were incubated at 37° C. After 4 hours the test substances were added in various concentrations (0 μM, as well as in the range of 0.001-10 μM; the final concentration of the solvent dimethyl sulfoxide was adjusted to 0.1%) using a Hewlett-Packard HP D300 Digital Dispenser. The cells were incubated for another 92 hours at 37° C. in the presence of test substances. […] After three washing cycles of the fixed cells with water, the plates were dried at room temperature. The cells were stained by adding 100 μL/measuring point of a 0.1% crystal violet solution (pH 3.0). After three washing cycles of the stained cells with water, the plates were dried at room temperature. The dye was dissolved by adding 100 μL/measuring point of a 10% acetic acid solution. […] The change of cell number, in percent, was calculated by normalization of the measured values to the absorption values of the zero-point plate (=0%) and the 5 absorption of the untreated (0 μm) cells (=100%). The IC50 values were determined by means of a 4 parameter fit.

Assay [5] shares this test system. In words: Proliferation assay (HeLa cell line). Type of assay: cell-based. Particulars: 96 h, 4 days incubation, crystal violet, read-out: Biological Assay 2: Proliferation assay (HeLa cell line) median IC50. On the procedure: as §2, with “Human tumour cells were originally obtained from the American Type Culture Collection (ATCC), the Deutsche Sammlung von Mikroorganismen und Zellkulturen (DSMZ, German Collection of Microorganisms and Cell Cultures), or Epo GmbH Berlin. Cultivated” for “Cultivated”, “below), while the” for “below). The”, “with” for “with 3 nM of paclitaxel (Sigma-Aldrich) and the cells were incubated at 37° C. After 4 hours”, “substances” for “substances were added”, “4 days” for “another 92 hours at 37° C.”, “the” for “the 5”

Where [6] appears, read: Nocodazole 1 μg/ml 16 h, then test compound 1 h.

Where two headings read alike, the source gives them in different places.

T1 sequence (O43683 704-1085): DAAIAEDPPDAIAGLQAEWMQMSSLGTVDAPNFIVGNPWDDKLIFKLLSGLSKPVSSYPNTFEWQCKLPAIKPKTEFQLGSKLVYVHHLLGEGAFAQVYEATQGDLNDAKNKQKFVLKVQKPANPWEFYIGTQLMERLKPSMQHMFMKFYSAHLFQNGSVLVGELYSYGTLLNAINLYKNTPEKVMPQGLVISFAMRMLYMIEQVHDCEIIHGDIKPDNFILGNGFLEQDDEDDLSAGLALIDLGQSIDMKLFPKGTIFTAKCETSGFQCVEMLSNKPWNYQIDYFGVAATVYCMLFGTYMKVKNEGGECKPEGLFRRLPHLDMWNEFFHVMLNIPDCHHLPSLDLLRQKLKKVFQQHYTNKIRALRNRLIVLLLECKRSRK

In the case of `COc1cnc(-c2nn(Cc3c(F)cc(OCCO)cc3F)c3ccccc23)nc1Nc1cc(C)nc(C)n1` [Example 2-4-1, 2-{4-[(3-{4-[(2,6-dimethylpyrimidin-4-yl)amino]-5-methoxypyrimidin-2-yl}-1H-indazol-1-yl)methyl]-3,5-difluorophenoxy}ethanol], the IC50 in assay [1] is 37 nM.
Take `COc1cnc(-c2nn(Cc3c(F)cc(OCCO)cc3F)c3ccccc23)nc1Nc1ccnc(F)c1` [Example 2-1-11, 2-{3,5-difluoro-4-[(3-{4-[(2-fluoropyridin-4-yl)amino]-5-methoxypyrimidin-2-yl}-1H-indazol-1-yl)methyl]phenoxy}ethanol]: the IC50 in assay [1] stood at 19 nM; in assay [2] (setting [6]) it was 5.2 nM; in assay [3], 4.9 nM; in assay [4], 110 nM; in assay [5] it was 5100 nM.
In the case of `COc1cnc(-c2nn(Cc3c(F)cc(OCCO)cc3F)c3ccccc23)nc1Nc1ccnc(NC(=O)NC2CC2)c1` [Example 2-1-16, 1-cyclopropyl-3-{4-[(2-{1-[2,6-difluoro-4-(2-hydroxyethoxy)benzyl]-1H-indazol-3-yl}-5-methoxypyrimidin-4-yl)amino]pyridin-2-yl}urea], the IC50 was 17 nM in assay [1]; 74 nM in assay [2] (setting [6]); 87 nM in assay [3]; 300 nM in assay [4]; 3100 nM in assay [5].
Turning to `COc1cnc(-c2nn(Cc3c(F)cc(OCCOC(C)=O)cc3F)c3ccccc23)nc1Nc1ccncc1` [Example 6-3-1, 2-[3,5-difluoro-4-({3-[5-methoxy-4-(pyridin-4-ylamino)pyrimidin-2-yl]-1H-indazol-1-yl}methyl)phenoxy]ethyl acetate, reference compound], the IC50 in assay [2] is 3600 nM; in assay [4], 650 nM; in assay [5] it was 3300 nM.
Turning to `COc1cnc(C)cc1Nc1nc(-c2nn(Cc3c(F)cc(OCCO)cc3F)c3ccccc23)ncc1OC` [Example 2-1-19, 2-{3,5-difluoro-4-[(3-{5-methoxy-4-[(5-methoxy-2-methylpyridin-4-yl)amino]pyrimidin-2-yl}-1H-indazol-1-yl)methyl]phenoxy}ethanol], the IC50 in assay [1] was 95 nM; in assay [4], 140 nM; in assay [5] it was above 10000 nM.
Take `COc1cnc(-c2nn(Cc3c(F)cc(OCCO)cc3F)c3ccccc23)nc1Nc1cc(C)ncc1C` [Example 2-1-8, 2-{4-[(3-{4-[(2,5-dimethylpyridin-4-yl)amino]-5-methoxypyrimidin-2-yl}-1H-indazol-1-yl)methyl]-3,5-difluorophenoxy}ethanol]: the figures for the IC50 in assay [1], in assay [4] and in assay [5] were 31 nM, 120 nM and above 10000 nM, respectively.
For the molecule `COc1cnc(-c2nn(Cc3c(F)cc(OCCO)cc3F)c3ccccc23)nc1Nc1ccncc1C1CC1` [Example 2-1-9, 2-{4-[(3-{4-[(3-cyclopropylpyridin-4-yl)amino]-5-methoxypyrimidin-2-yl}-1H-indazol-1-yl)methyl]-3,5-difluorophenoxy}ethanol], the IC50 in assay [1] came out at 13 nM.
In the case of `COc1cnc(-c2nn(Cc3c(F)cc(OCCO)cc3F)c3ccccc23)nc1Nc1ccnc(C(F)F)c1` [Example 2-1-7, 2-(4-{[3-(4-{[2-(difluoromethyl)pyridin-4-yl]amino}-5-methoxypyrimidin-2-yl)-1H-indazol-1-yl]methyl}-3,5-difluorophenoxy)ethanol], the IC50 in assay [1] came out at 23 nM; in assay [3], 27 nM; in assay [4] it was 480 nM; in assay [5], 9100 nM.
`COc1cnccc1Nc1nc(-c2nn(Cc3c(F)cc(OCCCO)cc3F)c3ccccc23)ncc1OC` [Example 2-3-2, 3-{3,5-difluoro-4-[(3-{5-methoxy-4-[(3-methoxypyridin-4-yl)amino]pyrimidin-2-yl}-1H-indazol-1-yl)methyl]phenoxy}propan-1-ol]: the IC50 is 10 nM in assay [1], 9.8 nM in assay [2] (setting [6]), 55 nM in assay [4] and 1000 nM in assay [5].
`CCOc1cc(F)c(Cn2nc(-c3ncc(OCCOCCNC(=S)Nc4ccc(-c5c6ccc(=O)cc-6oc6cc(O)ccc56)c(C(=O)O)c4)c(Nc4ccncc4)n3)c3ccccc32)c(F)c1` [Example 6-5-1, 5-[({2-[2-({2-[1-(4-ethoxy-2,6-difluorobenzyl)-1H-indazol-3-yl]-4-(pyridin-4-ylamino)pyrimidin-5-yl}oxy)ethoxy]ethyl}carbamothioyl)amino]-2-(6-hydroxy-3-oxo-3H-xanthen-9-yl)benzoic acid, reference compound]: the IC50 in assay [1] came out at 21 nM.

These data come from patent US10350206B2, “Benzyl substituted indazoles as BUB1 inhibitors” (Bayer Pharma Aktiengesellschaft, priority 2014, dated 2019).
